Assay results taken from patent US6376488B1, “Benzoxazine α-1 adrenergic compounds” (Abbott Laboratories, priority 2000, dated 2002).
Where a name gives a salt, the structure may show the parent alone.

Assays:
α1a (rat) adrenoreceptor = molecular target: T1, α1a (rat) adrenoreceptor (Rattus norvegicus, UniProt P43140); experiment: [3H]-prazosin radioligand binding, cloned α1a (rat) adrenoreceptor in LTK cells; conditions: cloned receptor in LTK cell membranes, [3H]prazosin 0.2 nM
T1 sequence (P43140 1-466): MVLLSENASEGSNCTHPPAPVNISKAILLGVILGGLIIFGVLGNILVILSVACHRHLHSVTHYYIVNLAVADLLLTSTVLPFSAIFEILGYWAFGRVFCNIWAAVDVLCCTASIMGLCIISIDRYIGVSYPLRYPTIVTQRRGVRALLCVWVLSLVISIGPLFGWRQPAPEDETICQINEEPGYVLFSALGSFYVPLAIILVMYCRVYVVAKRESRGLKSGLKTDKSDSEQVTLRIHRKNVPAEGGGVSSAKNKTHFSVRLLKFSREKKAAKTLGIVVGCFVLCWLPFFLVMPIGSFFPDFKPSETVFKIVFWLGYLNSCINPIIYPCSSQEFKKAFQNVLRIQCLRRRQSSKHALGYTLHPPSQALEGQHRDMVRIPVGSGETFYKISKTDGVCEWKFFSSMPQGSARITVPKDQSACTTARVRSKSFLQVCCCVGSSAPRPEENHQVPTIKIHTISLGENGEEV
Excerpt: (§1) The cDNA clones encoding the α1, adrenoreceptors were obtained from TULCO (Triangle Universities Licensing Consortium, Research Triangle Park, N.C.) and inserted into the eukaryotic expression vector SnaB30. In this vector, expression of the adrenoreceptor gene is under the transcriptional control of an SV40 early promoter. Positive drug selection is provided by a neomycin-resistance gene. Mouse fibroblast cells (LTK) were transfected with the α1 expression plasmids and grown in Dulbecco's modified Eagle's medium (DMEM) containing 10% fetal calf serum and 30 μM G418. […] Stable single cell clones derived from the parental lines were screened in adrenoreceptor binding assays to identify clones having high adrenoreceptor density. Roller bottle cultures of the cloned lines were used to provide cell membranes for subsequent adrenoreceptor binding characterization studies. A cell line containing the SnaB30 vector expressing the human erythropoietin gene served as a negative control.
(§2) For adrenoreceptor binding assays, large scale membrane preparations were utilized in which 6 million cells were seeded into small (450 cm^2) Coming tissue culture roller bottles. DMEM (200 mL) containing 10% fetal calf serum and 300 μM G418 were added to each roller bottle. A 95% air/5% CO2 gas mixture (sterile) was injected into each roller bottle prior to sealing, and the bottles were then incubated at 37° C. on a roller rack for 5 days. Cells were refed with fresh medium after 3 days in culture.
(§3) On the fifth day of culture, growth medium was removed from cells grown in roller bottles, and the cells were washed twice with PBS (Sigma, 120 mM NaCl, 2.7 mM KCl, 10 mM Na2HPO4-NaH2PO4, pH=7.4). Cells were detached from the roller bottles by incubating for 15 minutes at 37° C. in a Tris-EDTA solution (10 mM Tris, 100 mM NaCl, 1 mM EDTA, pH=7.4). The cell suspension from each roller bottle was decanted into tared centrifuge tubes and kept on ice. An aliquot of each cell suspension was generally taken for cell counting. Cells were centrifuged at 3000×G for 5 minutes at 2-4° C., washed with PBS and recentrifuged. The supernatant was decanted, and the pellet was weighed to determine the wet weight of cells. Cells were washed a final time in 40 vol 5 mM Tris-HCl, 5 mM EDTA, pH=7.7 and centrifuged at 40,000×G for 10 minutes (“vol” indicates volume/weight, e.g., a “vol” of 40 would indicate that the one gram of cells were washed with 40 mls of buffer). Cells were homogenized in of 50 mM Tris-HCl, 5 mM EDTA (pH=7.4) (10 mL) and diluted to 40 mL/tube. Homogenates were centrifuged at 40,000×G for 10 minutes. The supernatant was decanted and the pellets rehomogenized in 50 mM Tris-HCl (pH=7.4) and centrifuged as before.
(§4) Following equilibration, bound radioligand was separated from free on GF/B filters (presoaked in 0.5% polyethyleneimine) using ither a Brandel or Packard cell harvester. Radioactivity was determined by standard liquid scintillation techniques.

[1] = molecular target: T2, α1b (Hamster) adrenoreceptor (Mesocricetus auratus, UniProt P18841); experiment: [3H]-prazosin radioligand binding, cloned α1b (hamster) adrenoreceptor in LTK cells; conditions: cloned receptor in LTK cell membranes, [3H]prazosin 0.2 nM
T2 sequence (P18841 1-515): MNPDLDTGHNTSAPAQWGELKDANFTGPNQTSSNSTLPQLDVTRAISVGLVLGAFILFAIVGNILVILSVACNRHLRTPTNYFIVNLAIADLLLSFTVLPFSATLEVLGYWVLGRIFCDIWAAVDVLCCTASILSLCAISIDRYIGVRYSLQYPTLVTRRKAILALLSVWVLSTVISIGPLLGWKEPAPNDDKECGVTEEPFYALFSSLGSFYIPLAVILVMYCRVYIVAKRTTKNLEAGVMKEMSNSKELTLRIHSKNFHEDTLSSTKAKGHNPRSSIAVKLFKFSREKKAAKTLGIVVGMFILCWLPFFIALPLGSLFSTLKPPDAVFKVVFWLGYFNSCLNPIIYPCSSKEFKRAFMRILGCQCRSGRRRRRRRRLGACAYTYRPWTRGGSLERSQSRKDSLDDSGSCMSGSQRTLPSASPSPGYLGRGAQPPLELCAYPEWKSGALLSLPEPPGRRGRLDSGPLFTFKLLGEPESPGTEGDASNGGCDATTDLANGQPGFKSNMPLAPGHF
Excerpt: as §1, §2, §3, §4

## COc1cccc2c1N1CCN(CCCn3c(=O)[nH]c4c(sc5cccnc54)c3=O)CC1CO2.Cl.Cl.Cl (single isomer, unassigned; (-)) [Example 9, (−) 3-[3-(10-methoxy-1,2,4a,5-tetrahydropyrazino[2,1-c][1,4]benzoxazin-3(4H)-yl)propyl]pyrido[2′,3′:4,5]thieno[3,2-d]pyrimidine-2,4(1H, 3H)-dione trihydrochloride]
α1a (rat) adrenoreceptor
  Ki: 0.359 nM
[1]
  Ki: 3.86 nM

## COc1cccc2c1N1CCN(CCn3c(=O)[nH]c4c(sc5cccnc54)c3=O)CC1CO2.Cl.Cl.Cl (single isomer, unassigned; (+)) [Example 16, (+) 3-[2-(10-methoxy-1,2,4a,5-tetrahydropyrazino[2,1-c][1,4]benzoxazin-3(4H)-yl)ethyl]pyrido[2′,3′:4,5]thieno[3,2-d]pyrimidine-2,4(1H,3H)-dione trihydrochloride]
α1a (rat) adrenoreceptor
  Ki: 1.24 nM
[1]
  Ki: 11.8 nM

## COc1cccc2c1N1CCN(CCCCn3c(=O)[nH]c4c(sc5cccnc54)c3=O)CC1CO2 (single isomer, unassigned; (+)) [Example 14, (+) 3-[4-(10-methoxy-1,2,4a,5-tetrahydropyrazino[2,1-c][1,4]benzoxazin-3(4H)-yl)butyl]pyido [2′,3′:4,5]thieno[3,2-d]pyrimidine-2,4(1H,3H)-dione trihydrochloride]
α1a (rat) adrenoreceptor
  Ki: 0.29 nM
[1]
  Ki: 8.32 nM

## COc1cccc2c1N1CCN(CCCCn3c(=O)[nH]c4c(sc5ncc(Cl)nc54)c3=O)CC1CO2.Cl.Cl (single isomer, unassigned; (-)) [Example 12, (−) 3-[4-(10-methoxy-1,2,4a,5-tetrahydropyrazino[2,1-c][1,4]benzoxazin-3(4H)-yl)butyl]-8-chloropyrazino[2′,3′:4,5]thieno[3,2-d]pyrimidine-2,4(1H,3H)-dione dihydrochloride]
α1a (rat) adrenoreceptor
  Ki: 0.648 nM
[1]
  Ki: 8.91 nM

## COc1cccc2c1N1CCN(CCCCn3c(=O)[nH]c4c(sc5ncccc54)c3=O)CC1CO2.Cl.Cl.Cl (single isomer, unassigned; (+)) [Example 15, (+) 3-[4-(10-methoxy-1,2,4a,5-tetrahydropyrazino[2,1-c][1,4]benzoxazin-3(4H)-yl)butyl]pyrido[3′,2′:4,5]thieno[3,2-d]pyrimidine-2,4(1H,3H)-dione trihydrochloride]
α1a (rat) adrenoreceptor
  Ki: 0.447 nM
[1]
  Ki: 13.8 nM

## COc1cccc2c1N1CCN(CCn3c(=O)[nH]c4c(sc5ncc(Cl)nc54)c3=O)CC1CO2.Cl.Cl (single isomer, unassigned; (-)) [Example 13, (−) 3-[2-(10-methoxy-1,2,4a,5-tetrahydropyrazino[2,1-c][1,4]benzoxazin-3(4H)-yl)ethyl]-8-chloropyrazino[2′,3′:4,5]thieno[3,2-d]pyrimidine-2,4(1H,3H)-dione dihydrochloride]
α1a (rat) adrenoreceptor
  Ki: 1.55 nM
[1]
  Ki: 39.1 nM

## COc1cccc2c1N1CCN(CCn3c(=O)[nH]c4c(sc5cccnc54)c3=O)CC1CO2.Cl.Cl (single isomer, unassigned; (-)) [Example 7, (−) 3-[2-(10methoxy-1,2,4a,5-tetrahydropyrazino[2,1-c][1,4]benzoxazin-3(4H)-yl)ethyl]pyrido[2′,3′:4,5]thieno[3,2-d]pyrimidine-2,4(1H,3H)-dione dihydrochloride]
α1a (rat) adrenoreceptor
  Ki: 0.864 nM
[1]
  Ki: 6.89 nM

## COc1cccc2c1N1CCN(CCCCn3c(=O)[nH]c4c(sc5ncccc54)c3=O)CC1CO2 (single isomer, unassigned; (-)) [Example 11, (−) 3-[4-(10-methoxy-1,2,4a,5-tetrahydropyrazino[2,1-c][1,4]benzoxazin-3(4H)-yl)butyl]pyrido[3′,2′:4.5]thieno[3,2-d]pyrimidine-2,4(1H,3H)-dione trihydrochloride]
α1a (rat) adrenoreceptor
  Ki: 0.24 nM
[1]
  Ki: 2.71 nM

## Cl.Cl.O=c1[nH]c2c(sc3ncccc32)c(=O)n1CCCCN1CCN2c3ccccc3OCC2C1 (single isomer, unassigned; (-)) [Example 6, (−) 3-[4-(1,2,4a,5-tetrahydropyrazino[2,1-c][1,4]benzoxazin-3(4H)-yl)butyl]pyrido[3′, 2′:4,5]thieno[3,2-d]pyrimidine-2,4(1H,3H)-dione dihydrochloride]
α1a (rat) adrenoreceptor
  Ki: 9.83 nM
[1]
  Ki: 27.3 nM

## (−) 3-[3-(10-methoxy-1,2,4a,5-tetrahydropyrazino[2,1-c][1,4]benzoxazin-3(4H)-yl)butyl]pyrido[2′,3′:4,5]thieno[3,2-d]pyrimidine-2,4(1H,3H)-dione trihydrochloride [Example 10]
α1a (rat) adrenoreceptor
  Ki: 0.257 nM
[1]
  Ki: 1.81 nM

## COc1cccc2c1N1CCN(CCn3c(=O)[nH]c4c(sc5ncc(Cl)nc54)c3=O)CC1CO2.Cl.Cl (single isomer, unassigned; (+)) [Example 8, (+) 3-[2-(10-methoxy-1,2,4a,5-tetrahydropyrazino[2,1-c][1,4]benzoxazin-3(4H)-yl)ethyl]-8-chloropyrazino[2′,3′:4,5]thieno[3,2-d]pyrimidine-2,4(1H,3H)-dione dihydrochloride]
α1a (rat) adrenoreceptor
  Ki: 1.78 nM
[1]
  Ki: 58.1 nM

## Cl.Cl.O=c1[nH]c2c(sc3ncccc32)c(=O)n1CCCCN1CCN2c3ccccc3OCC2C1 (single isomer, unassigned; (+)) [Example 5, (+) 3-[4-(1,2,4a,5-tetrahydropyrazino[2,1-c][1,4]benzoxazin-3(4H)-yl)butyl]pyrido[3′, 2′:4,5]thieno[3,2-d]pyrimidine-2,4(1H,3H)-dione dihydrochloride]
α1a (rat) adrenoreceptor
  Ki: 5.02 nM
[1]
  Ki: 40.6 nM

## Cl.Cl.O=c1[nH]c2c(sc3cccnc32)c(=O)n1CCCCN1CCN2c3ccccc3OCC2C1 (single isomer, unassigned; (+)) [Example 3, (+) 3-[4-(1,2,4a,5-tetrahydropyrazino[2,1-c][1,4]benzoxazin-3(4H)-yl)butyl]pyrido[2′, 3′:4,5]thieno[3,2-d]pyrimidine-2,4(1H,3H)-dione dihydrochloride]
α1a (rat) adrenoreceptor
  Ki: 2.85 nM
[1]
  Ki: 32.4 nM

## O=c1[nH]c2c(sc3cccnc32)c(=O)n1CCCCN1CCN2c3ccccc3OCC2C1 (single isomer, unassigned; (-)) [Example 4, (−) 3-[4-(1.2,4a,5-tetrahydropyrazino[2,1-c][1,4benzoxazin-3(4H)-yl)butyl]pyrido[2′,3′:4,5]thieno[3,2-d]pyrimidine-2,4(1H,3H)-dione dihydrochloride]
α1a (rat) adrenoreceptor
  Ki: 6.62 nM
[1]
  Ki: 26.5 nM

## O=c1[nH]c2c(sc3cccnc32)c(=O)n1CCCN1CCN2c3ccccc3OCC2C1 (single isomer, unassigned; (-)) [Example 2, (−) 3-[3-(1,2,4a,5-tetrahydropyrazino[2,1-c][1,4]benzoxazin-3(4H)-yl)propyl]pyrido[2′,3′:4,5]thieno[3,2-d]pyrimidine-2,4(1H,3H)-dione dihydrochloride]
α1a (rat) adrenoreceptor
  Ki: 19.3 nM
[1]
  Ki: 24.6 nM
